# In BindingDB's records for doi:10.1016/j.bmc.2007.06.041 (Seoul National University, 2007):
# Target: Transient receptor potential cation channel subfamily V member 1 (Rattus norvegicus, UniProt O35433)
# Assay: Competition Binding Assay and Inhibition of Ca2+ Uptake Assay
# Details: pH 7.4; 37 °C
# Description: Binding assay mixtures were set up and contained [3H] RTX, various concentrations of competing ligands, and rVR1-transfected CHO cells. Nonspecific binding was determined in the presence of 100 nM nonradioactive RTX. After the binding reaction, membrane-bound RTX was separated from the free by centrifugation, and the radioactivity was determined by scintillation counting. Equilibrium binding parameters (Ki, Bmax, and cooperativity) were determined by fitting the Hill equation to the measured values with the aid of the program Origin 6.0.
# Chain of Transient receptor potential cation channel subfamily V member 1 (O35433 whole entry): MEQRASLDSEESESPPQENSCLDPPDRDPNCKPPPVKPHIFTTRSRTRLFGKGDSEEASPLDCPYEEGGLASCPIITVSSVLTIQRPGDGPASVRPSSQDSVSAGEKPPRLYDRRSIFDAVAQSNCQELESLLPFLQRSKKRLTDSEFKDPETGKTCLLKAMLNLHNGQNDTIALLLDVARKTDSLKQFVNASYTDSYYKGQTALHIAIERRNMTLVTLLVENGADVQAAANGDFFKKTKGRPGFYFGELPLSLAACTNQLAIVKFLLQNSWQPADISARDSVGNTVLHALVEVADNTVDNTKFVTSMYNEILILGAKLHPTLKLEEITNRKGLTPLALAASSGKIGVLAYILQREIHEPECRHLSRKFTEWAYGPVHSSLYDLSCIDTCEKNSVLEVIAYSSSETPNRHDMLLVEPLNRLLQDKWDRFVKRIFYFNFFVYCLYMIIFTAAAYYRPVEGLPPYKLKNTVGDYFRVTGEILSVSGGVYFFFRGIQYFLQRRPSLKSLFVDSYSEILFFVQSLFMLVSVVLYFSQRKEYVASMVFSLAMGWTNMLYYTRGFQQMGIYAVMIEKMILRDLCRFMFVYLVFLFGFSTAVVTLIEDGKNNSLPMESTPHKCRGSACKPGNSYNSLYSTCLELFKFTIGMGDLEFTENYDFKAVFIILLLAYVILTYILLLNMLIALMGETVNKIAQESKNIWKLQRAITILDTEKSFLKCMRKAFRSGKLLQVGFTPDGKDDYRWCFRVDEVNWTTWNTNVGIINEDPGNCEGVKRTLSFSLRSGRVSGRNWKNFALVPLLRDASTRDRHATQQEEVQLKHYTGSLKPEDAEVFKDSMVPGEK
row,Structure (SMILES),Ki [µM]
1,COc1cc(C2(NC(=S)NCc3ccc(C(C)(C)C)cc3)CC2)ccc1NS(C)(=O)=O [1-[(4-tert-butylphenyl)methyl]-3-[1-(4-methanesulfonamido-3-methoxyphenyl)cyclopropyl]thiourea],0.243
2,CC(C)(C)c1ccc(CNC(=S)NC2(c3ccc(NS(C)(=O)=O)cc3)CC2)cc1 [1-[(4-tert-butylphenyl)methyl]-3-[1-(4-methanesulfonamidophenyl)cyclopropyl]thiourea],0.06
3,CC(C)C(NC(=S)NCc1ccc(C(C)(C)C)cc1)c1ccc(NS(C)(=O)=O)c(F)c1 (configuration not stated) [3-[(4-tert-butylphenyl)methyl]-1-[1-(3-fluoro-4-methanesulfonamidophenyl)-2-methylpropyl]thiourea],0.223
4,CC(C)(C)c1ccc(CNC(=S)NC(Cc2ccccc2)c2ccc(NS(C)(=O)=O)c(F)c2)cc1 (configuration not stated) [3-[(4-tert-butylphenyl)methyl]-1-[1-(3-fluoro-4-methanesulfonamidophenyl)-2-phenylethyl]thiourea],0.7
5,CC(NC(=S)NCc1ccc(C(C)(C)C)cc1)c1ccc(NS(C)(=O)=O)c(F)c1 (configuration not stated) [3-[(4-tert-butylphenyl)methyl]-1-[1-(3-fluoro-4-methanesulfonamidophenyl)ethyl]thiourea],0.0092
6,CCC(NC(=S)NCc1ccc(C(C)(C)C)cc1)c1ccc(NS(C)(=O)=O)c(F)c1 (configuration not stated) [3-[(4-tert-butylphenyl)methyl]-1-[1-(3-fluoro-4-methanesulfonamidophenyl)propyl]thiourea],0.054
7,COc1cc(C(C)NC(=S)NCc2ccc(C(C)(C)C)cc2)ccc1NS(C)(=O)=O (configuration not stated) [3-[(4-tert-butylphenyl)methyl]-1-[1-(4-methanesulfonamido-3-methoxyphenyl)ethyl]thiourea],0.0286
8,CC(NC(=S)NCc1ccc(C(C)(C)C)cc1)c1ccc(NS(C)(=O)=O)cc1 (configuration not stated) [3-[(4-tert-butylphenyl)methyl]-1-[1-(4-methanesulfonamidophenyl)ethyl]thiourea],0.0147
9,CC(C)(C)c1ccc(CNC(=S)NC(C)(C)c2ccc(NS(C)(=O)=O)c(F)c2)cc1 [3-[(4-tert-butylphenyl)methyl]-1-[2-(3-fluoro-4-methanesulfonamidophenyl)propan-2-yl]thiourea],0.98
10,COc1cc(C(C)(C)NC(=S)NCc2ccc(C(C)(C)C)cc2)ccc1NS(C)(=O)=O [3-[(4-tert-butylphenyl)methyl]-1-[2-(4-methanesulfonamido-3-methoxyphenyl)propan-2-yl]thiourea],0.663
11,CC(C)(C)c1ccc(CNC(=S)NC(C)(C)c2ccc(NS(C)(=O)=O)cc2)cc1 [3-[(4-tert-butylphenyl)methyl]-1-[2-(4-methanesulfonamidophenyl)propan-2-yl]thiourea],1.8
12,C[C@@H](NC(=S)NCc1ccc(C(C)(C)C)cc1)c1ccc(NS(C)(=O)=O)c(F)c1 [3-[(4-tert-butylphenyl)methyl]-1-[(1R)-1-(3-fluoro-4-methanesulfonamidophenyl)ethyl]thiourea],0.037
13,C[C@@H](NC(=S)NCc1ccc(C(C)(C)C)cc1)c1ccc(NS(C)(=O)=O)cc1 [3-[(4-tert-butylphenyl)methyl]-1-[(1R)-1-(4-methanesulfonamidophenyl)ethyl]thiourea],0.0045
14,C[C@H](NC(=S)NCc1ccc(C(C)(C)C)cc1)c1ccc(NS(C)(=O)=O)c(F)c1 [3-[(4-tert-butylphenyl)methyl]-1-[(1S)-1-(3-fluoro-4-methanesulfonamidophenyl)ethyl]thiourea],2.67
15,CC(C)(C)c1ccc(CNC(=S)NC(c2ccccc2)c2ccc(NS(C)(=O)=O)c(F)c2)cc1 (configuration not stated) [3-[(4-tert-butylphenyl)methyl]-1-[(3-fluoro-4-methanesulfonamidophenyl)(phenyl)methyl]thiourea],0.86
16,CC(C)(C)c1ccc(CNC(=S)NCc2ccc(NS(C)(=O)=O)c(F)c2)cc1 [JYL1421],0.0092
17,"Oc1cc2c(cc1O)CN(C(=S)NCCc1ccc(Cl)cc1)CCC2 [N-[2-(4-chlorophenyl)ethyl]-7,8-dihydroxy-2,3,4,5-tetrahydro-1H-2-benzazepine-2-carbothioamide]",0.52
